Experimental data as given in article PMC6838339, “Discovery of Novel Multi-target Inhibitor of angiotensin type 1 receptor and neprilysin inhibitors from Traditional Chinese Medicine” (Scientific Reports, 2019).

Molecular target: T1, Angiotensin II type-1 receptor (AT1) (Homo sapiens, UniProt P30556)
T1 construct: gene AGTR1
T1 sequence (P30556 1-359): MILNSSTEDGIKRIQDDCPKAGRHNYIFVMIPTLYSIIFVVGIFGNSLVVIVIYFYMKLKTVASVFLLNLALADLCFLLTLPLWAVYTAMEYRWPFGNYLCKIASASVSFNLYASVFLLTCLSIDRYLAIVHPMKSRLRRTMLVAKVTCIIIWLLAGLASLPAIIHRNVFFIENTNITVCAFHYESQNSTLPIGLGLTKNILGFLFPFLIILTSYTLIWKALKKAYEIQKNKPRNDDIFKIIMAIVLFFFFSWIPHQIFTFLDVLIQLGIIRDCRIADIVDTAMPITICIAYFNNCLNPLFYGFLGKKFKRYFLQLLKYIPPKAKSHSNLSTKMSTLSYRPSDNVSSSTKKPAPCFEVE
Assay: FLIPR calcium influx assay in HEK293/Ga15/AT1 cells, angiotensin II stimulated
Assay type: cell-based

## Cc1cc(OC(=O)c2c(C)cc(OC(=O)c3c(C)cc(O)cc3O)cc2O)cc(O)c1C(=O)O [gyrophoric acid]
  IC50: 29.8 µM
